Assay results published in patent publication US20250066446A1, “FUSION PROTEINS FOR THE TREATMENT OF CARDIOMETABOLIC DISEASES” (Shattuck Labs, Inc., priority 2022, published 2025).
“Also recorded” adds a separate entry of the source. One block for each molecule: values may come before it. Where no end group is shown, it is not given here.

Legend:
[1] = molecular target: GlP receptor (GlPR) of rat INS-1 insulinoma cells (UniProt P43219)
[2] = molecular target: glucose-dependent insulinotropic polypeptide receptor (GlPR) on GeneBLAzer GlPR-CRE-bla HEK293T cells (UniProt P48546); test: cell-based or functional assay
GlPR = molecular target: T1, GlPR (Rattus norvegicus, UniProt P43219); test: pGloSensor-22F cAMP biosensor assay in rat INS-1 cells (GlPR agonism and antagonism); format: cell-based; parameters: dose or concentration left out as unconfirmed; settings: increasing doses mixed with GlP(Ag)
T1 construct: endogenous in cells; host or cells: rat INS-1 insulinoma cells carrying a cAMP reporter (a cAMP-luciferase reporter in A2, the pGloSensor-22F biosensor in A4)
T1 sequence (P43219 19-455): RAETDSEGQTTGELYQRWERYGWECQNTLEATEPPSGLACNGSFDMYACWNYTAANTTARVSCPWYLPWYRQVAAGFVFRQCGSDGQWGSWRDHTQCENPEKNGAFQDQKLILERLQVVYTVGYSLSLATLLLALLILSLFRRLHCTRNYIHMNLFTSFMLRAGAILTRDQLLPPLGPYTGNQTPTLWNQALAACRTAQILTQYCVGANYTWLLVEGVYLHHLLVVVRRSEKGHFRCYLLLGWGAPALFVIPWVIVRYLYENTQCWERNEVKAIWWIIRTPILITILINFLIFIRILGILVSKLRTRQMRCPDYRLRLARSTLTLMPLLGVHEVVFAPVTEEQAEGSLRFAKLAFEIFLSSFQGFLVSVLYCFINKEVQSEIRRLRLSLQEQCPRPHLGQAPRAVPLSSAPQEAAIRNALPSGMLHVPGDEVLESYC
Method: Briefly, rat INS-1 cells having pGloSensor-22F (Promega) were constructed and used to evaluate GlPR agonism and antagonism. […] The conformational change leads to the activation of the luciferase enzyme, thereby allowing detection of activation of GlPR, which produces cAMP upon activation.
Immediately after the addition, the luminescence of the cells was measured, normalized using the basal luminescence and plotted.

[3] = human NASH patients; cited from earlier work
[4] = Longer-term obesity model in HFD-fed mice; settings: for blood glucose levels: Days 0, 1, 10 and 15; for blood glucose levels / average daily food intake: compared to the untreated mice; for plasma insulin levels on Day 15: FIG. 8C right panel; for liver weight / subcutaneous white adipose tissue (sWAT) weight: day 19 terminal necropsy, vs PBS control; for change in body weight: tail vein dosing Day 0, 4, 7, 10, 14, 18, weighed every 2 days; for collagen staining (fibrosis), picrosirius red liver sections / hepatocellular ballooning and steatosis, H&E liver histology: vs vehicle-treated mice
Method: Mice (Male C57BL/6) were of approximately 13 weeks of age were housed 4 mice per cage. Following 2 weeks of acclimatation, mice were introduced to 60% kcal HFD (Research Diets D12492). Cages were changed once, then changed once a week. Weekly body weights and non-fasted blood glucose were collected.
Mice were injected by tail vein with vehicle or the drugs on Day 0, Day 4, Day 7, Day 10, Day 14, and Day 18. Body weights were measured every 2 days. Change in body weight was calculated and plotted.
Cumulative food intake was measured between day 0 and 3, between day 4 and 7, between day 7 and day 11, and between day 11 and day 14, and represented as average daily food intake. For food consumption, remaining food was weighed on days 3, 8, and 15, and subtracted from the starting weight. This value was then normalized to the number of mice in the cage, and the number of days the mice had access to the food prior to weighing.
Blood glucose levels were measured on Days 0, 1, 10 and 15 and plotted.
On day 19 during terminal necropsy, liver and subcutaneous white adipose tissue were recovered weighed from treated animals.
To further analyze the changes in liver, histopathological analysis was conducted. Briefly, the liver tissue was stained with hematoxylin and eosin (H&E) and evaluated using standard techniques.

[5] = molecular target: T2, glucose-dependent insulinotropic polypeptide receptor (GlPR) (Homo sapiens, UniProt P48546); test: GeneBLAzer GlPR-CRE-bla HEK293T cell-based reporter assay; settings: 5 hours incubation; for 460/530 ratio, indicative of the activation of GlPR: increasing amounts
T2 construct: host or cells: GeneBLAzer GIPR-CRE-bla HEK293T cells
T2 sequence (P48546 22-466): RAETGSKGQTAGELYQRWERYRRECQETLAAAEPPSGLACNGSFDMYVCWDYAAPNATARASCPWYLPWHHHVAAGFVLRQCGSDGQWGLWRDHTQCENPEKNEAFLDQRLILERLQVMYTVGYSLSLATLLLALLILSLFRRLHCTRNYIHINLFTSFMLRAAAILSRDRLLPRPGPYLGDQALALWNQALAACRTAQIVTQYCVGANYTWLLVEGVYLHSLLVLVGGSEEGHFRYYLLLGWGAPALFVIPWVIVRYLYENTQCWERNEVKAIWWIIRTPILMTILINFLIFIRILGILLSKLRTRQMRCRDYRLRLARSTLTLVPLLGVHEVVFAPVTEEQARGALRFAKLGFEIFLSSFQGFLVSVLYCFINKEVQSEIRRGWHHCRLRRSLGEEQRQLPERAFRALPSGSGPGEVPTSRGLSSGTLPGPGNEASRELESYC
Method: This assay is diagrammatically represented in FIG. 3A. […] In the presence of the β-lactamase LiveBLAzer™ substrate, cells expressing β-lactamase fluoresce blue (460 nm), while those not expressing β-lactamase fluoresce green (530 nm); higher 460/530 ratio indicates the activation of GlPR.
Briefly, GeneBLAzer® GlPR-CRE-bla HEK293T cells were added to wells of black-wall assay plates. […] To each well, LiverBLAzer-FRET B/G substrate mixture was added. The plate was covered with plate sealer and incubated at room temperature for 2 hours in the dark. Fluorescence emission was measured on SpectraMax plate reader at 460 nm and 530 nm with excitation set to 409 nm. After subtraction of background, average value at 460 nm (blue color) was divided by average value at 530 nm (green color) to obtain the 460/530 ratio.

GlP receptor (GlPR) = molecular target: T3, GlP receptor (GlPR) (Rattus norvegicus, UniProt P43219); test: cAMP-Glo assay in rat insulinoma INS-1 cells harboring a cAMP-luciferase reporter gene; format: cell-based; settings: 1 hour glucose, then 2 hour incubation with increasing amounts
T3 construct: endogenous in cells; host or cells: rat INS-1 insulinoma cells carrying a cAMP reporter (a cAMP-luciferase reporter in A2, the pGloSensor-22F biosensor in A4)
T3 sequence (P43219 19-455): T1 sequence (P43219 19-455)
Excerpt: Rat insulinoma INS-1 cells harboring a cAMP-luciferase reporter gene were used to study the activation of GlPR. Without wishing to be bound by theory, the activation of GlPR leads to temporary depletion of ATP because of consumption of ATP in cyclization reaction to produce cAMP as well as by phosphorylation by protein kinase A of its substrate. Without wishing to be bound by theory, the temporary depletion of ATP leads to an inhibition of luciferase activity, which needs ATP as a substrate.

[6] = Glucose tolerance test (GTT) model in HFD-fed mice; format: in vivo, mice (Male C57BL/6); settings: i.v. treatment, 18 hours fast, 2 g/kg glucose, 15 min to 2 hours
Method: Cages were changed once, then changed once a week.
The mice administered the above treatment by i.v. injections. The mice were then fasted for 18 hours and administered a dose of 2 g/kg glucose by i.v. injections. Blood samples were drawn by tail clip bleeding at 15, 30 and 60 minutes post dosing and cardiac bleeding was used at 2 hours after glucose injection as end-point.

[7] = system: rat insulinoma INS-1 cells; test: in vitro glucose-stimulated insulin secretion (GSIS) in INS-1 cells; format: cell-based; settings: 1 hour glucose, then 2 hour incubation; ELISA
Excerpt: X is a known inducer of GSIS.

EC50 (read off the curve): fall of cAMP-Glo luminescence, rat INS-1 cells [1]: 0.007 pM | EC50 of GlPR activation (460/530 ratio, GeneBLAzer GlPR-CRE-bla HEK293T beta-lactamase reporter) [2]: 11.8 pM
Molecule: GlP(Ag)-Fc fusion protein (from UniProt P09681 52-93)

Molecule: GlP(AntPro3): GlP Antagonist (amino acids 1-42, having a E3P substitution); SEQ ID NO: 97 (YAPGTFISDYSIAMDKIHQQDFVNWLLAQKGKKNDWKHNITQ)
inhibition of GlP(Ag)-induced activation of the cAMP-luciferase reporter gene (GlPR antagonism) (GlPR): more potent inhibition of GlP agonist signaling than the others tested; also recorded: maximal level of a dose-dependent inhibition of GlP(Ag)-induced activation

Molecule: GlP(AntPro3NH2): GlP antagonist peptide derivative of GlP(AntPro3), NH2 form (YAPGTFISDYSIAMDKIHQQDFVNWLLAQKGKKNDWKHNITQ-NH2)
inhibition of GlP(Ag)-induced activation of the cAMP-luciferase reporter gene (GlPR antagonism) (GlPR): more potent inhibition of GlP agonist signaling than the others tested; also recorded: maximal level of a dose-dependent inhibition of GlP(Ag)-induced activation

Molecule: Pegbelfermin [Pegbelfermin (BMS-986036)]
liver fat content [3]: reduce liver fat content

Molecule: dulaglutide [reference compound]
blood glucose levels [4]: decrease in blood glucose | plasma insulin levels on Day 15 [4]: significant decrease in the levels of insulin | plasma insulin levels on Day 1 ([4]; between 15 and 120 minutes after treatment): rapid decrease in insulin levels | average daily food intake [4]: decrease in food intake | liver weight [4]: livers of control mice that received only PBS were much heavier | subcutaneous white adipose tissue (sWAT) weight [4]: decreased | change in body weight [4]: progressive weight loss | tolerability, clinical observations ([4]; tail vein dosing Day 0 to Day 18): well tolerated and no overt toxicities were noted | collagen staining (fibrosis), picrosirius red liver sections [4]: decrease in collagen staining | hepatocellular ballooning and steatosis, H&E liver histology [4]: decrease in hepatocellular ballooning and steatosis

EC50 (read off the curve): fall of cAMP-Glo luminescence, rat INS-1 cells [1]: 0.003 pM
Molecule: tirzepatide (peptide)

Molecule: tirzepatide [reference compound]
460/530 ratio, indicative of the activation of GlPR [5]: dose-dependent and saturable increase in 460/530 ratio | luciferase activity (cAMP-Glo), activation of GlPR (GlP receptor (GlPR)): dose-dependent and saturable inhibition of luciferase with similar potency | serum insulin following glucose administration [6]: rapid induction of insulin | serum glucose following glucose administration ([6]; vs PBS control): much smaller increase in serum glucose | blood glucose levels [4]: decrease in blood glucose | plasma insulin levels on Day 15 [4]: significant decrease in the levels of insulin | average daily food intake [4]: decrease in food intake | hepatocellular ballooning and steatosis, H&E under higher magnifications ([4]; compared to untreated animals): significant decrease in hepatocellular ballooning and steatosis | liver weight [4]: livers of control mice that received only PBS were much heavier | subcutaneous white adipose tissue (sWAT) weight [4]: decreased | change in body weight [4]: progressive weight loss | collagen staining (fibrosis), picrosirius red liver sections [4]: decrease in collagen staining | hepatocellular ballooning and steatosis, H&E liver histology [4]: decrease in hepatocellular ballooning and steatosis

EC50 ([5]; 460/530 ratio, purified proteins, read-out: EC50 of GlPR activation): 13.1 pM
B1: GlP(Ag)-Fc-FGF19: GlP fused to FGF19 via a hinge-CH2-CH3 Fc domain derived from IgG1; SEQ ID NO: 88 (protein)
chain: YAEGTFISDYSIAMDKIHQQDFVNWLLAQKGKKNDWKHNITQPCPAPEAAGGPSVFLFPPKPKDTLMISRTPEVTCVVVDVSHEDPEVKFNWYVDGVEVHNAKTKPREEQYNSTYRVVSVLTVLHQDWLNGKEYKCKVSNKALPAPIEKTISKAKGQPREPQVYTLPPSRDELTKNQVSLTCLVKGFYPSDIAVEWESNGQPENNYKTTPPVLDSDGSFFLYSKLTVDKSRWQQGNVFSCSVMHEALHNHYTQKSLSLSPGKIEGRMDRDSSPLVHYGWGDPIRLRHLYTSGPHGLSSCFLRIRADGVVDCARGQSAHSLLEIKAVALRTVAIKGVHSVRYLCMGADGKMQGLLQYSEEDCAFEEEIRPDGYNVYRSEKHRLPVSLSSAKQRQLYKNRGFLPLSHFLPMLPMVPEEPEDLRGHLESDMFSSPLETDSMDPFGLVTGLEAVRSPSFEK
460/530 ratio, indicative of the activation of GlPR [5]: dose-dependent and saturable increase in 460/530 ratio | luciferase activity (cAMP-Glo), activation of GlPR (GlP receptor (GlPR)): dose-dependent and saturable inhibition of luciferase with similar potency | insulin in the culture supernatant (GSIS) [7]: stimulated insulin production to a similar, if not greater magnitude than dulaglutide or tirzepatide
